SMILES strings stand for the structures.

Among the data in patent publication US12577217B2, “15-PGDH inhibitor” (KYORIN Pharmaceutical Co., Ltd., priority 2019, dated 2026) are IC50 values, retold here.

The assay addresses T1, recombinant human 15-PGDH (Homo sapiens, UniProt P15428).
T1 construct: purchased R&D Systems
T1 sequence (P15428 1-266): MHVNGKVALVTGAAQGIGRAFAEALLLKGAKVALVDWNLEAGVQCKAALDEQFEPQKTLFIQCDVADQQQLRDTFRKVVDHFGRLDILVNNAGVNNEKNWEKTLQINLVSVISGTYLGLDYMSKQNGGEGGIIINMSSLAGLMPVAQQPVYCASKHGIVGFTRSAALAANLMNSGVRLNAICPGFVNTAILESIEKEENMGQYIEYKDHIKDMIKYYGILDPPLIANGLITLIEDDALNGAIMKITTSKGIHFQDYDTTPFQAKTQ
Put plainly: 15-PGDH enzyme inhibition test. Format: biochemical. The conditions noted are these: 4 nM recombinant human 15-PGDH, 30 μM PGE2, 1 mM NAD+, 60 minutes after starting the reaction; read-out: IC50 Value. The method, then: 15-PGDH Enzyme Inhibition Test
A test compound and 4 nM recombinant human 15-PGDH (R&D Systems) were added, in 50 mM Tris-HCl (pH 8.0) containing 0.01% TWEEN 20 (Sigma) and 0.01% bovine gamma globulin (Sigma), to a 384-well Flat Bottom Black plate (Corning, 3820), and the resultant was allowed to stand still at room temperature for 12 minutes, and 30 μM PGE2 (Cayman Chemical) and 1 mM NAD+ (Sigma) were added thereto to start the reaction. 60 minutes after starting the reaction, measurement was performed using Synergy 2 (BioTeck) at an excitation wavelength of 340 nm and a fluorescence wavelength of 440 nm. Assuming that a fluorescence signal obtained with an assay buffer added instead of the test compound and NAD+ was 100% and that a signal obtained with NAD+ added was 0%, a concentration corresponding to 50% inhibition plotted on a concentration-reaction curve of the test compound was defined as an IC50 value. Incidentally, in the following tables, an IC50 value smaller than 10 nM was shown as +++, an IC50 value equal to or larger than 10 nM and smaller than 100 nM was shown as ++, and an IC50 value equal to or larger than 100 nM was shown as +.

As usually defined, the IC50 is the concentration needed to halve the response being measured. Consider `CN1Cc2cc(N3CCOc4cc(C(=O)N5CCOCC5)cnc43)ccc2C1=O` [Example 8-188], for which the IC50 is < 10 nM.

Regarding `CN1Cc2cc(N3CCOc4cc(C(=O)N5CCC[C@@H](C(F)F)C5)cnc43)ccc2C1=O` [Example 8-205], the IC50 is < 10 nM.

Regarding `O=C(c1ccc2c(c1)OCCN2c1ccn2c(=O)[nH]nc2c1)N1CCC(F)(F)CC1` [Example 1-148], the half-inhibitory concentration (IC50) is < 10 nM.

Consider `CCN1Cc2cc(N3CCCc4cc(C(=O)N5CCC[C@H](F)C5)cnc43)ccc2C1=O` [Example 8-84], for which the half-inhibitory concentration (IC50) was < 10 nM.

With `CN(CCCO)C(=O)c1cnc2c(c1)OCCN2c1ccn2c(=O)n(C)nc2c1` [Example 8-175], the half-inhibitory concentration (IC50) was 10 to 100 nM.

Regarding `CCn1nc2cc(N3CCCc4cc(C(=O)N5CCCC(C)(F)C5)cnc43)ccn2c1=O` (stereo not shown) [Example 8-166], the IC50 was < 10 nM.

With `CNC(=O)c1ccc(N2CCOc3cc(C(=O)N4CC=CCC4)ccc32)cc1OC` [Example 5-3], the concentration for half-maximal inhibition (IC50) was < 10 nM.

For the compound `CC(C)n1nc2cc(N3CCOc4cc(C(=O)N5CCCCC5)cnc43)ccn2c1=O` [Example 1-27], the IC50 is < 10 nM.

For the compound `C[C@@H]1CCCN1C(=O)c1cnc2c(c1)OCCN2c1ccn2c(=O)n(C)nc2c1` [Example 8-22], the half-maximal inhibitory concentration (IC50) fell in the range of 10 to 100 nM.

On to `Cn1nc2cc(N3CCCCc4cc(C(=O)N5CCCCC5)cnc43)ccn2c1=O` [Example 1-107], for which the 50% inhibitory concentration (IC50) was < 10 nM.

`COc1ccc(CN2Cc3cc(N4CCOc5cc(C(=O)N6CCCCC6)cnc54)ccc3C2=O)cc1` [Example 1-37]: the IC50 is < 10 nM.

As for `CCN(C)C(=O)c1cnc2c(c1)OCCN2c1ccn2c(=O)n(C)nc2c1` [Example 8-55], the 50% inhibitory concentration (IC50) is < 10 nM.

Consider `N#Cc1ccc(N2CCOc3cc(C(=O)N4CCCCC4)ccc32)cc1` [Example 1-157], for which the IC50 is < 10 nM.

Consider `CCn1nc2cc(N3CCOc4cc(C(=O)N5CCN(C)C(=O)C5)cnc43)ccn2c1=O` [Example 8-221], for which the concentration for half-maximal inhibition (IC50) was > 100 nM.

Consider `O=C(c1cnc2c(c1)OCCN2c1ccc2c(c1)CN(C1CC1)C2=O)N1CCC(F)(F)CC1` [Example 1-227], for which the IC50 is < 10 nM.

Turning to `CCN1Cc2cc(N3CCOc4cc(C(=O)N5CCC(F)(F)CC5)cnc43)ccc2C1=O` [Example 8-212], the concentration for half-maximal inhibition (IC50) was < 10 nM.

For `CN1Cc2cc(N3CCOc4cc(S(=O)(=O)C5CCCCC5)cnc43)ccc2C1=O` [Example 7-10], the IC50 was in the range of 10 to 100 nM.

For the compound `CC(=O)N1CCN(c2ccn3c(=O)n(C)nc3c2)c2ncc(C(=O)N3CCCCC3)cc21` [Example 29-3], the 50% inhibitory concentration (IC50) is < 10 nM.

For the compound `CN1CCN(c2ccc(C(=O)O)cc2)c2ncc(C(=O)N3CCCCC3)cc21` [Example 4-21], the IC50 is < 10 nM.

In the case of `Cn1nc2cc(N3CCOc4cc(C(=O)N5CCC(F)(F)C5)cnc43)ccn2c1=O` [Example 8-25], the IC50 was < 10 nM.

In the case of `CNC(=O)c1ccc(N2CCCc3cc(C(=O)N4CCCCC4)cnc32)cc1C` [Example 1-207], the IC50 was in the range of 10 to 100 nM.

In the case of `O=C(c1cnc2c(c1)CCCN2c1ccn2c(=O)[nH]nc2c1)N1CCC[C@H](CF)C1` [Example 1-145], the IC50 is < 10 nM.

For the compound `CCOCCN1Cc2cc(N3CCOc4cc(C(=O)N5CCC(F)(F)CC5)cnc43)ncc2C1=O` [Example 1-51], the IC50 is 10 to 100 nM.

For `CCCN1Cc2cc(N3CCOc4cc(C(=O)N5CCCCC5)cnc43)ccc2C1=O` [Example 1-222], the IC50 was < 10 nM.

Take `C[C@H]1CCCN(C(=O)c2cnc3c(c2)CCCN3c2ccn3c(=O)n(C)nc3c2)C1` [Example 8-135]: the 50% inhibitory concentration (IC50) is < 10 nM.

For `Cn1nc2cc(N3CCOc4cc(C(=O)N5CCCC(C)(C)C5)cnc43)ccn2c1=O` [Example 8-110], the concentration for half-maximal inhibition (IC50) is < 10 nM.

In the case of `CN(C)C(=O)c1ccc(N2CCCc3cc(C(=O)N4CCCCC4)cnc32)cc1` [Example 6-15], the IC50 was in the range of 10 to 100 nM.

With `NC(=O)c1ccc(N2CCCc3cc(C(=O)N4CCCCC4)cnc32)cc1` [Example 6-14], the IC50 is < 10 nM.

With `N#Cc1ccc(N2CCOc3cc(C(=O)N4CCC(F)(F)CC4)ccc32)cc1` [Example 1-17], the concentration for half-maximal inhibition (IC50) is < 10 nM.

Regarding `CN1Cc2cc(N3CCOc4cc(C(=O)N5CCC[C@H](C(F)F)C5)cnc43)ccc2C1=O` [Example 8-206], the IC50 was < 10 nM.

For `CN1Cc2cc(N3CCOc4cc(C(=O)N5CC=CCC5)cnc43)ccc2C1=O` [Example 8-191], the IC50 was < 10 nM.

As to `O=C(O)c1ccc(N2CCOc3cc(C(=O)N4CCCCC4)ccc32)cc1` [Example 2-7], the IC50 was < 10 nM.

As to `N#Cc1ccc(N2CCOc3cc(C(=O)N4CCCCC4)cnc32)cc1` [Example 1-241], the 50% inhibitory concentration (IC50) was < 10 nM.

Regarding `Cn1nc2cc(N3CCc4cc(C(=O)N5CCCCC5)cnc43)ccn2c1=O` [Example 1-109], the 50% inhibitory concentration (IC50) is < 10 nM.

For the compound `CCn1nc2cc(N3CCCc4cc(C(=O)N5CCC(F)CC5)cnc43)ccn2c1=O` [Example 8-165], the concentration for half-maximal inhibition (IC50) was < 10 nM.

In the case of `CCn1nc2cc(N3CCCc4cc(C(=O)N5CCCCCC5)cnc43)ccn2c1=O` [Example 8-149], the IC50 was < 10 nM.

As to `COCCNC(=O)c1ccc(N2CCCc3cc(C(=O)N4CCCCC4)cnc32)cc1F` [Example 1-60], the IC50 was < 10 nM.

Turning to `Cn1nc2cc(N3CCCc4cc(C(=O)N5CCCCCCC5)cnc43)ccn2c1=O` [Example 8-125], the half-maximal inhibitory concentration (IC50) is < 10 nM.

Regarding `CCOCCn1nc2cc(N3CCCc4cc(C(=O)N5CCC[C@@H](CF)C5)cnc43)ccn2c1=O` [Example 1-124], the IC50 was < 10 nM.

On to `Cn1nc2cc(N3CCOc4cc(C(=O)N5CCC[C@@H]5C(N)=O)cnc43)ccn2c1=O` [Example 36-2], for which the half-inhibitory concentration (IC50) was > 100 nM.

Turning to `O=C(c1cnc2c(c1)OCCN2c1ccc2c(c1)CN(CO)C2=O)N1CCC(F)(F)CC1` [Example 25-1, 5-(7-(4,4-Difluoropiperidine-1-carbonyl)-2,3-dihydro-4H-pyrido[3,2-b]oxazin-4-yl)-2-(hydroxymethyl)isoindolin-1-one], the IC50 was < 10 nM.

For `Cn1nc2cc(N3CCOc4cc(C(=O)C5CCCCC5)cnc43)ccn2c1=O` [Example 1-111], the IC50 was < 10 nM.

On to `O=C(NCC1COC1)c1ccc(N2CCCc3cc(C(=O)N4CCCCC4)cnc32)cc1F` [Example 1-61], for which the half-inhibitory concentration (IC50) was < 10 nM.

In the case of `Cn1ccc2cc(N3CCOc4cc(C(=O)N5CCC(F)(F)CC5)cnc43)ccc2c1=O` [Example 1-267], the concentration for half-maximal inhibition (IC50) is < 10 nM.

With `O=C(O)c1ccc(N2CCOc3cc(C(=O)N4CCC(F)(F)CC4)ccc32)cc1` [Example 2-35], the IC50 is < 10 nM.

In the case of `Cn1cnc2cc(N3CCOc4cc(C(=O)N5CCCCC5)cnc43)cnc2c1=O` [Example 1-38], the IC50 is < 10 nM.

Take `Cn1nc2cc(N3CCCc4cc(C(=O)N5CC=CCC5)cnc43)ccn2c1=O` [Example 8-129]: the IC50 is < 10 nM.

As to `CC(C)(N)c1ccc(N2CCOc3cc(C(=O)N4CCCCC4)cnc32)cc1` [Example 1-246], the IC50 is > 100 nM.

As for `CN1Cc2cc(N3CCOc4cc(C(=O)N5CCCC(F)(F)C5)cnc43)ccc2C1=O` [Example 8-201], the IC50 was < 10 nM.

With `Cn1nc2cc(N3CCCOc4cc(C(=O)N5CCCCCC5)cnc43)ccn2c1=O` [Example 8-59], the half-inhibitory concentration (IC50) was < 10 nM.

With `Cn1nc2cc(N3CCOc4cc(C(=O)N5CCC(C#N)CC5)cnc43)ccn2c1=O` [Example 8-183], the IC50 was in the range of 10 to 100 nM.

As for `Cn1nc2cc(N3CCOc4cc(C(=O)N5CCC[C@@H]5C(=O)OC(C)(C)C)cnc43)ccn2c1=O` [Example 8-228], the IC50 was > 100 nM.
